Data published in publication PMC9616412, “Nebulized fusion inhibitory peptide protects cynomolgus macaques from measles virus infection” (Nature Communications, 2022).
Values joined by “and” are separate entries in the source; they are usually repeats but may differ in a detail not shown here. Equal values may be shown once.

Columns and labels:
[1] = Laser diffraction and output measurement of the nebulized aerosol; format: physicochemical; conditions: HRC4 4 mg/ml, 3 ml, prototype mesh nebulizer, laser diffraction; mean +/- SD of four devices
Description: The aerodynamic performances of the aerosols generated by the prototype mesh nebulizer were determined by laser diffraction using a Spraytec™ instrument (Malvern Instruments Ltd., Malvern, UK) and the Spraytec inhalation cell (Malvern Instruments Ltd., Malvern, UK) connected to an aspiration carried out by a vacuum pump set to 30-50 L/min[70]. The prototype mesh nebulizers (n=4) were loaded with 3 ml of either NaCl 0.9% or the HCR4 peptide (4 mg/ml, dissolved as described above) and then connected to the inhalation cell. Nebulization duration was notified at the end of the complete aerosolization of the loaded 3 ml. Diffraction data and volume distribution were automatically registered by the Spraytec software.
The output of nebulizer was determined by the difference between the weight of the nebulizer before and after nebulization and was expressed in percentage of the loaded volume. The output rate of each nebulizer (in ml/min) was then determined as the ratio between the output and the nebulization duration. At least, the residual volume corresponding to the volume of liquid remaining in the reservoir at the end of the nebulization was also determined by weighting the nebulizer before loading it and after nebulization.

[2] = Immunofluorescence detection of HRC4 in lungs after nebulization; format: in vivo, cynomolgus macaques; conditions: lungs sampled 15 min, 16 h and 24 h after nebulization; anti-HRC4 immunofluorescence, all three lung regions
Description: To evaluate immediate HRC4 biodistribution into lungs, one animal from the MeV-infection experiment (C1) was nebulized with 3 ml (4 mg/ml) immediately after euthanasia under mechanical ventilation (Dräger Primus anesthesia machine). For mid-term biodistribution, animals were nebulized 24 h (C2) or 16 h (C3) before euthanasia.
To assess the bioavailability of the HRC4 peptide on lungs, sections were stained and imaged by confocal microscopy as described previously. Briefly, after being blocked and permeabilized in 0.1% TritonX100, 5% BSA solution, slices were sequentially incubated with a rabbit anti-HRC4 (Genscript) overnight at 4 °C and with a secondary donkey anti-rabbit alexa-555 (Thermo Fisher) diluted 1/500 and DAPI (1 µg/ml) for 1 h at room temperature. Slides were imaged using a Zeiss LSM800 confocal microscope and processed by ImageJ1.52p.

[3] = ELISA of anti-HRC4 antibodies (IgG, IgA, IgM) in serum; format: in vivo, cynomolgus macaques; conditions: for anti-HRC4 antibodies (IgG, IgA and IgM), ELISA, D28 minus day 0: serum 1:20, rep1-rep3
Description: (§1) Briefly, HRC4 was coated in carbonate buffer pH 9.2 overnight (1 μg /well). […] Rabbit anti-HRC4 Ab followed with anti-rabbit Ab coupled to HRP was used as a positive control. Evaluation of total IgE in the serum was performed using the monkey IgE kit (Ozyme) following the manufacturer’s recommendation.

[4] = ELISA of HRC4-specific IgE in serum; format: in vivo, cynomolgus macaques; conditions: up to 4 weeks after nebulization
Description: as §1

[5] = Lung histopathology (HE, HES; eosinophil infiltration); format: in vivo, cynomolgus macaques; conditions: for Lung eosinophil infiltration: HES staining
Description: Lung tissue samples were collected at necropsy and fixed by immersion in 10% neutral buffered formalin (Sigma) for a minimum of 14 days. The tissue samples were trimmed, processed and embedded in paraffin. 4 to 5 µm-thick sections were cut. For histopathology evaluation, slides were routinely stained with hematoxylin-eosin (HE) or with hematoxylin-eosin-saffron (HES). For the study of the pulmonary infiltration by eosinophils, the histopathologic evaluation was performed by a board-certified veterinary pathologist.
For hematoxylin-eosin staining, formalin-fixed tissues were processed and embedded in paraffin and tissue sections were then deparaffinized, rehydrated, rinsed, and placed in PBS before harrys hematoxylin staining (Diapath, diluted 1/3), washed with PBS and stained with eosin 1% (Sigma-Aldrich). Slide were washed with water dehydrated and mounted with DPX mounting medium (Sigma-Aldrich). For the study of eosinophils infiltration, slides were stained in addition with saffron and analysed by a board-certified veterinary pathologist.

[6] = Flow cytometry of major PBMC populations in blood; format: in vivo, cynomolgus macaques; conditions: compared to values before the nebulization
[7] = ELISA of total IgE in serum; format: in vivo, cynomolgus macaques; set-up: unit not given here; conditions: Peptide group
Description: as §1

MeV = assay: Plaque reduction assay on Vero-hSLAM cells; conditions: fusion inhibition and plaque reduction in vitro before and after nebulization with mesh nebulizer
[8] = ELISA of HRC4 concentration in serum and urine
MeV IC323-eGFP [9] = assay: ELISA of total MeV-specific immunoglobulin in serum; conditions: HRC4-treated animals P1 and P3
Description: Sera of MeV-infected NHPs were tested for the presence of anti-MeV antibodies by ELISA. Briefly, MeV nucleoprotein, produced as described previously[71] was coated onto 96-well ELISA plates overnight (1 μg /well). Plates were blocked using a mix of PBS 1X-Milk 5% for 30 min at room temperature. Serial dilutions (1:50 and then 1:3 serial dilutions until 1:2952450) were done in PBS 1X-Tween 0.05%-Milk and incubated 2 h at RT. […] Optical density was measured at 450 and 620 nm using an ELISA reader (Thermo Fisher) and the absorbance difference between 450 nm and 650 nm was determined and corrected for blank readings. The serum sample was considered positive when its value was higher than three times the average value obtained with the negative sera of the same dilution and the results were expressed as reciprocal value of the last serum dilution giving the measurable values.

MeV IC323-eGFP [10] = assay: MeV infection of NHP: clinical signs and fluorescent rash
Description: Blood samples for hematology analyses were collected at days −1, 0, 1, 2, 3, 6, 9, 13, 16 and 28. Blood samples for flow cytometry analyses were collected at days −1, 3, 6, 9, 13, 16 and 28. Throat swabs were collected at days 0, 1, 2, 3, 6, 9, 13, 16 and 28, using cotton swabs. Oxygen saturation and heartbeat were monitored by a Radical-7® Pulse CO-Oximeter (Masimo) and breathing was monitored by a Dräger Primus anesthesia machine. Hematological parameters were measured on a Procyte DX (IDEXX) and biochemical parameters were evaluated on a Konelab 30 (Thermo Fisher). Development of fluorescent rash was followed using a FastGene Blue/Green LED Flashlight (Nippon genetics).

[11] = Clinical observation for adverse effects after nebulization; conditions: during the 28 days after peptide nebulization
MeV IC323-eGFP [12] = assay: Class-unswitched and switched memory B cells by flow cytometry; conditions: HRC4-treated animals P1 and P3
Description: Whole blood was collected on EDTA, then transferred into BD vacutainer CPT tubes (after removal of anticoagulant solution from CPT tubes) and spun at 2500 g for 20 min. The PBMCs were collected and one-tenth were used to isolate RNA. […] Cells were acquired on a MACSQuant®10 flow cytometer (Miltenyi) and analyzed by FlowJo10.8 (Becton Dickinson) and Kaluza 2.1 (Beckman Coulter).

MeV IC323 = assay: Lethal intranasal MeV infection of CD150xIFNα/βR KO mice, survival; conditions: p < 0.0001, Mantel-Cox test
Description: CD150xIFNα/βR KO mice[35],[36], generated by crossing hSLAM transgenic mice into an IFN Receptor α/β deficient background, were bred at the institute’s animal facility (PBES, ENS-Lyon, France) as heterozygotes for hSLAM transgenes. Three to 4 weeks old mice (males and females) were infected by intranasal route (i.n.) with 10 µl of MeV IC323 in both nares (10^4 PFU/mouse) under isoflurane anesthesia. CD150xIFNα/βR KO mice were given i.n. either 0.1 or 1 mg/kg of HRC4 peptide 24 h or 6 h before the infection. Control mice received the same number of administrations of the diluent. All animals were observed and weighed daily for four weeks and those showing clinical signs (neurological symptoms, ataxia, lethargy) were euthanized.

Q: With `CC[C@H](C)[C@H](NC(=O)[C@H](C)NC(=O)[C@H](CC(N)=O)NC(=O)CNC(=O)[C@H](CC(C)C)NC(=O)[C@H](CC(N)=O)NC(=O)[C@@H](NC(=O)CNC(=O)[C@@H](NC(=O)[C@H](CC(=O)O)NC(=O)[C@H](CC(C)C)NC(=O)[C@H](CCCNC(=N)N)NC(=O)[C@H](CCC(=O)O)NC(=O)[C@H](CC(C)C)NC(=O)[C@H](CO)NC(=O)[C@@H](NC(=O)[C@@H]1CCCN1C(=O)[C@@H]1CCCN1)[C@@H](C)CC)C(C)C)[C@@H](C)O)C(=O)N[C@@H](C)C(=O)N[C@@H](CCCCN)C(=O)N[C@@H](CC(C)C)C(=O)N[C@@H](CCC(=O)O)C(=O)N[C@@H](CC(=O)O)C(=O)N[C@@H](C)C(=O)N[C@@H](CCCCN)C(=O)N[C@@H](CCC(=O)O)C(=O)N[C@@H](CC(C)C)C(=O)N[C@@H](CC(C)C)C(=O)N[C@@H](CCC(=O)O)C(=O)N[C@@H](CO)C(=O)N[C@@H](CO)C(=O)N[C@@H](CC(=O)O)C(=O)N[C@@H](CCC(N)=O)C(=O)N[C@H](C(=O)N[C@@H](CC(C)C)C(=O)N[C@@H](CCCNC(=N)N)C(=O)NCC(=O)N[C@@H](CO)C(=O)NCC(=O)N[C@@H](CO)C(=O)NCC(=O)N[C@@H](CSC1CC(=O)N(CCCC(=O)NCCOCCOCCOCCOCCC(=O)NCCN(CCNC(=O)CCOCCOCCOCCOCCNC(=O)CCCN2C(=O)CC(SC[C@H](NC(=O)CNC(=O)[C@H](CO)NC(=O)CNC(=O)[C@H](CO)NC(=O)CNC(=O)[C@H](CCCNC(=N)N)NC(=O)[C@H](CC(C)C)NC(=O)[C@@H](NC(=O)[C@H](CCC(N)=O)NC(=O)[C@H](CC(=O)O)NC(=O)[C@H](CO)NC(=O)[C@H](CO)NC(=O)[C@H](CCC(=O)O)NC(=O)[C@H](CC(C)C)NC(=O)[C@H](CC(C)C)NC(=O)[C@H](CCC(=O)O)NC(=O)[C@H](CCCCN)NC(=O)[C@H](C)NC(=O)[C@H](CC(=O)O)NC(=O)[C@H](CCC(=O)O)NC(=O)[C@H](CC(C)C)NC(=O)[C@H](CCCCN)NC(=O)[C@H](C)NC(=O)[C@@H](NC(=O)[C@H](C)NC(=O)[C@H](CC(N)=O)NC(=O)CNC(=O)[C@H](CC(C)C)NC(=O)[C@H](CC(N)=O)NC(=O)[C@@H](NC(=O)CNC(=O)[C@@H](NC(=O)[C@H](CC(=O)O)NC(=O)[C@H](CC(C)C)NC(=O)[C@H](CCCNC(=N)N)NC(=O)[C@H](CCC(=O)O)NC(=O)[C@H](CC(C)C)NC(=O)[C@H](CO)NC(=O)[C@@H](NC(=O)[C@@H]3CCCN3C(=O)[C@@H]3CCCN3)[C@@H](C)CC)C(C)C)[C@@H](C)O)[C@@H](C)CC)[C@@H](C)CC)C(=O)O)C2=O)CCO[C@H]2CC[C@@]3(C)C(=CC[C@H]4[C@@H]5CC[C@H]([C@H](C)CCCC(C)C)[C@@]5(C)CC[C@@H]43)C2)C1=O)C(=O)O)[C@@H](C)CC` (stereo partly drawn) [HRC4] as the compound, how does the “< 2µm” value [1] read?
A: 13.9 +/- 2.0%

Q: What about the “< 5µm” value [1] of the same compound?
A: 57.4 +/- 3.9%

Q: And the VMD [1]?
A: 4.43 +/- 0.26 µm

Q: And the “Deposition of HRC4 in lungs” value [2]?
A: presence of HRC4 within the alveoli surface area

Q: What about the “HRC4 specific antibodies in serum” value ([3]; 28 days after nebulization) of the same compound?
A: not found

Q: And the “anti-HRC4 antibodies (IgG, IgA and IgM), ELISA, D28 minus day 0” value ([3]; animal P2)?
A: 0.2158 and 0.159 and 0.1449

Q: What about the “anti-HRC4 antibodies (IgG, IgA and IgM), ELISA, D28 minus day 0” value ([3]; animal P3) of the same compound?
A: 0.0684 and 0.0721 and 0.0837

Q: What about the “HRC4-specific IgE in serum” value [4] of the same compound?
A: did not reveal presence of any HRC4-specific IgE

Q: And the Lung eosinophil infiltration ([5]; HRC4-treated animals P1 and P3)?
A: no eosinophil infiltration was visible

Q: What about the Lung eosinophil infiltration ([5]; animals that developed MeV infection (incl. HRC4-treated P2)) of the same compound?
A: minimal although noticeable eosinophil infiltration

Q: And the “Histological analysis of lungs” value ([5]; lungs collected from nebulized animals)?
A: did not reveal any abnormalities

Q: And the “Composition of major PBMC populations in blood” value [6]?
A: did not reveal any significant changes

Q: And the “Total IgE” value ([7]; animal column 1, day 0 post nebulization)?
A: 1.801

Q: What about the “Total IgE” value ([7]; animal column 1, day 3 post nebulization) of the same compound?
A: 3.381

Q: What about the “Total IgE” value ([7]; animal column 1, day 6 post nebulization) of the same compound?
A: 4.651

Q: And the “Total IgE” value ([7]; animal column 1, day 13 post nebulization)?
A: 17.565

Q: And the “Total IgE” value ([7]; animal column 1, day 28 post nebulization)?
A: 2.916

Q: What about the “Total IgE” value ([7]; animal column 2, day 0 post nebulization) of the same compound?
A: 1.21

Q: And the “Total IgE” value ([7]; animal column 2, day 3 post nebulization)?
A: 1.735

Q: And the “Total IgE” value ([7]; animal column 2, day 6 post nebulization)?
A: 1.034

Q: And the “Total IgE” value ([7]; animal column 2, day 13 post nebulization)?
A: 2.308

Q: What about the “Total IgE” value ([7]; animal column 2, day 28 post nebulization) of the same compound?
A: 3.192

Q: What about the “Total IgE” value ([7]; animal column 3, day 0 post nebulization) of the same compound?
A: 3.017

Q: What about the “Total IgE” value ([7]; animal column 3, day 3 post nebulization) of the same compound?
A: 5.929

Q: What about the “Total IgE” value ([7]; animal column 3, day 6 post nebulization) of the same compound?
A: 6.63

Q: What about the “Total IgE” value ([7]; animal column 3, day 13 post nebulization) of the same compound?
A: 5.888

Q: And the “Total IgE” value ([7]; animal column 3, day 28 post nebulization)?
A: 1.999

Q: What about the “Loss of inhibitory activity by nebulization” value (MeV) of the same compound?
A: did not cause any loss of activity

Q: And the level at time molar at 96 h ([8]; cynomolgus monkey, serum, inhaled or intranasal, 4 mg/kg, [HRC4] nM, serum of NHP, 96 hours post nebulization, single values)?
A: 0.285 nM

Q: And the HRC4 in urine ([8]; nebulized macaques)?
A: absent

Q: And the “[HRC4]” value ([8]; serum of NHP, 0 hours post nebulization, single values)?
A: 0 nM

Q: And the “[HRC4]” value ([8]; serum of NHP, 168 hours post nebulization, single values)?
A: 0 nM

Q: What about the Seroconversion (MeV IC323-eGFP [9]) of the same compound?
A: absence of seroconversion

Q: What about the “Abrogation of development of MeV infection” value (MeV IC323-eGFP [10]; absence of fluorescent rash, PBMC infection, viremia, viral shedding and MeV-specific immune response) of the same compound?
A: two out of three animals

Q: And the GFP-fluorescent rash (MeV IC323-eGFP [10]; nebulized HRC4 24 h and 6 h before and 24 h after intra-tracheal 10^4 PFU MeV IC323-eGFP, 3 animals)?
A: no HRC4-treated animals

Q: What about the “Adverse effects (pyrexia, allergic reaction)” value [11] of the same compound?
A: no adverse effects

Q: And the “Memory B cell populations” value (MeV IC323-eGFP [12])?
A: remained stable without any noticeable increase

Q: What about the Survival rate (MeV IC323; HRC4 1 mg/kg intranasal six hours before infection with 10^4 PFU) of the same compound?
A: significantly higher survival rate

Q: And the Survival rate (MeV IC323; HRC4 1 mg/kg intranasal twenty-four hours before infection with 10^4 PFU)?
A: significantly higher survival rate
